Experimental data from US10501449B2 (priority 2018, dated 2019).
pIC50: −log10 of the molar value.

Molecular target: hROMK (human Kir1.1) (Homo sapiens (Human), UniProt P48048)
Assay: cell-based
Details: CHO T-Rex hROMK stable cell line; thallium flux; 10-point concentration response curve; read-out: Human ROMK Th Flux IC50

hROMK (human Kir1.1), sequence (P48048 whole entry): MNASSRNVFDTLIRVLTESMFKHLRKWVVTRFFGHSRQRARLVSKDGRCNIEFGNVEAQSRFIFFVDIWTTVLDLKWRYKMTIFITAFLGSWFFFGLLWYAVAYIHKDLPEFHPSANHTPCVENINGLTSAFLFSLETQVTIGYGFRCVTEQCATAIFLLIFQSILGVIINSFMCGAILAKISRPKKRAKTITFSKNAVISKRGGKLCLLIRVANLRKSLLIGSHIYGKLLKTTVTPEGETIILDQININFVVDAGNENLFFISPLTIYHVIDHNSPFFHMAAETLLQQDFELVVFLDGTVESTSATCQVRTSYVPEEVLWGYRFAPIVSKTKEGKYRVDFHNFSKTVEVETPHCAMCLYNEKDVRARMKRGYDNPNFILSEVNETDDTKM

Structure (SMILES) | pIC50
Cc1c([C@@H]2CN(Cc3ccc(-c4ccnc(N5CCOC5=O)c4)nc3)C[C@H](C)N2)ccc2c1COC2=O [Example 174-I, 3-(5-(((3S,5R)-3-methyl-5-(4-methyl-1-oxo-1,3-dihydroisobenzofuran-5-yl)piperazin-1-yl)methyl)-[2,4′-bipyridin]-2′-yl)oxazolidin-2-one] | 6.66
Cc1cn(-c2cc(C(F)(F)F)c(CN3CCN[C@H](c4ccc5c(c4C)COC5=O)C3)cn2)cn1 [Example 147-I, (R)-4-methyl-5-(4-((6-(4-methyl-1H-imidazol-1-yl)-4-(trifluoromethyl)pyridin-3-yl)methyl)piperazin-2-yl)isobenzofurna-1(3H)-one] | 7.06
Cc1cc(-n2cc(CN3C[C@@H](c4ccc5c(c4C)COC5=O)NS3(=O)=O)cn2)ncc1C#N [Example 119-I, (R)-4-methyl-6-(4-((4-(4-methyl-1-oxo-1,3-dihydroisobenzofuran-5-yl)-1,1-dioxido-1,2,5-thiadiazolidin-2-yl)methyl)-1H-pyrazol-1-yl)nicotinonitrile] | 6.85
Cc1c([C@@H]2CN(Cc3nnc(-c4ccc(C#N)cn4)o3)CCO2)ccc2c1COC2=O [Example 12-I, (R)-6-(5-((2-(4-methyl-1-oxo-1,3-dihydroisobenzofuran-5-yl)morpholino)methyl)-1,3,4-oxadiazol-2-yl)nicotinonitrile] | 6.28
COc1cc(-n2cc(CN3CCN[C@H](c4ccc5c(c4C)COC5=O)C3)cn2)cc2c1oc(=O)n2C [Example 56-I, (R)-7-methoxy-3-methyl-5-(4-((3-(4-methyl-1-oxo-1,3-dihydroiso-benzofuran-5-yl)piperazin-1-yl)methyl)-1H-pyrazol-1-yl)benzo[d] oxazol-2(3H)-one] | 6.82
Cc1cc(-n2cc(CCN3CCO[C@H](c4ccc5c(c4C)COC5=O)C3)cn2)ncc1C#N [Example 31-I, (R)-4-methyl-6-(4-(2-(2-(4-methyl-1-oxo-1,3-dihydroisobenzofuran-5-yl)morpholino)ethyl)-1H-pyrazol-1-yl) nicotinonitrile] | 6.72
Cc1c([C@@H]2CN(Cc3cnn(-c4ccc5oc(=O)n(C)c5c4C)c3)CCN2)ccc2c1COC2=O [Example 135-I, (R)-3,4-dimethyl-5-(4-((3-(4-methyl-1-oxo-1,3-dihydroisobenzofuran-5-yl)piperazin-1-yl)methyl)-1H-pyrazol-1-yl)benzo[d]oxazol-2(3H)-one] | 6.77
Cc1ncc(-n2cc(CN3CCO[C@H](c4ccc5c(c4C)COC5=O)C3)cn2)s1 [Example 7-I, (R)-4-methyl-5-(4-((1-(2-methylthiazol-5-yl)-1H-pyrazol-4-yl)methyl)morpholin-2-yl) isobenzofuran-1(3H)-one] | 6.00
Cc1c([C@@H]2CN(Cc3cn(-c4ccc5c(c4)OC(F)(F)O5)cn3)C[C@H](C)N2)ccc2c1COC2=O [Example 182-I, 5-((2R,6S)-4-((1-(2,2-difluorobenzo[d][1,3]dioxol-5-yl)-1H-imidazol-4-yl)methyl)-6-methylpiperazin-2-yl)-4-methylisobenzofuran-1(3H)-one] | 6.59
Cc1cc(-n2cc(CN3CC(c4ccc5c(c4C)COC5=O)NC(C(C)(C)O)C3)cn2)ncc1C#N (single isomer, unassigned) [Example 213-I, 6-(4-((3-(2-hydroxypropan-2-yl)-5-(4-methyl-1-oxo-1,3-dihydroisobenzofuran-5-yl)piperazin-1-yl)methyl)-1H-pyrazol-1-yl)-4-methynicotinonitrile] | 5.92
Cc1c([C@@H]2CN(C(=O)c3cnc(-c4ccc5oc(=O)n(C)c5c4)s3)CCO2)ccc2c1COC2=O [Example 20-I, (R)-3-methyl-5-(5-(2-(4-methyl-1-oxo-1,3-dihydroisobenzofuran-5-yl)morpholine-4-carbonyl)thiazol-2-yl)benzo[d]oxazol-2(3H)-one] | 6.31
Cc1cn(-c2ncc(CN3CCO[C@H](c4ccc5c(c4C)COC5=O)C3)s2)cn1 [Example 36-I, (R)-4-methyl-5-(4-((2-(4-methyl-1H-imidazol-1-yl)thiazol-5-yl)methyl)morpholin-2-yl)iso-benzofuran-1(3H)-one] | 6.17
Cc1cc(-n2cc(CN3CCN(S(C)(=O)=O)[C@H](c4ccc5c(c4C)COC5=O)C3)cn2)ncc1C#N [Example 69-I, (R)-4-methyl-6-(4-((3-(4-methyl-1-oxo-1,3-dihydroisobenzofuran-5-yl)-4-(methylsulfonyl)piperazin-1-yl)methyl)-1H-pyrazol-1-yl) nicotinonitrile] | 6.05
Cc1c([C@@H]2CN(Cc3cnn(-c4ccc5oc(=O)n(C)c5c4)c3)CC(=O)N2)ccc2c1COC2=O [Example 71-I, (R)-3-methyl-5-(4-((3-(4-methyl-1-oxo-1,3-dihydroisobenzofuran-5-yl)-5-oxopiperazin-1-yl)methyl)-1H-pyrazol-1-yl)benzo[d]oxazol-2(3H)-one] | 6.10
Cc1c([C@@H]2CN(Cc3ccc(-c4ccc(=O)n(C)c4)nc3)C[C@H](C)N2)ccc2c1COC2=O [Example 238-I, 1′-methyl-5-(((3S,5R)-3-methyl-5-(4-methyl-1-oxo-1,3-dihydroisobenzofuran-5-yl)piperazin-1-yl)methyl)-[2,3′-bipyridin]-6′(1′H)-one] | 6.33
Cc1cc(-c2nc(CN3CC[C@@H](O)[C@H](c4ccc5c(c4C)COC5=O)C3)co2)ncc1C#N [Example 132-I, 6-(4-(((3R,4R)-4-hydroxy-3-(4-methyl-1-oxo-1,3-dihydroisobenzofuran-5-yl)piperidin-1-y)methyl)oxazol-2-yl)-4-methylnicotinonitrile] | 6.77
Cc1c([C@@H]2CN(Cc3cnn(-c4ccc(S(C)(=O)=O)cn4)c3)C[C@H](C)N2)ccc2c1COC2=O [Example 161-I, 4-methyl-5-((2R,6S)-6-methyl-4-((1-(5-(methylsulfonyl)pyridin-2-yl)-1H-pyrazol-4-yl)methyl)piperazin-2-yl)isobenzofuran-1(3H)-one] | 6.77
Cc1c([C@@H]2CN(Cc3ccc(-n4cnc(C#N)n4)nc3)CC(=O)N2)ccc2c1COC2=O [Example 73-I, (R)-1-(5-((3-(4-methyl-1-oxo-1,3-dihydroiso-benzofuran-5-yl)-5-oxo-piperazin-1-yl)methyl)pyridin-2-yl)-1H-1,2,4-triazole-3-carbonitrile] | 6.82
COc1cc(N2CC(CN3C[C@@H](c4ccc5c(c4C)COC5=O)N[C@@H](C)C3)CC2=O)ccn1 (stereo partly drawn) [Example 254-I, 1-(2-methoxypyridin-4-yl)-4-(((3S,5R)-3-methyl-5-(4-methyl-1-oxo-1,3-dihydroisobenzofuran-5-yl)piperazin-1-yl)methyl)pyrrolidin-2-one] | 5.80
Cc1c([C@@H]2CN(Cc3cnn(-c4cccc(C#N)c4)c3)CCO2)ccc2c1COC2=O [Example 43-I, (R)-3-(4-((2-(4-methyl-1-oxo-1,3-dihydroiso-benzofuran-5-yl)morpho-lino)methyl)-1H-pyrazol-1-yl)benzonitrile] | 6.96
COc1c(CN2CCN[C@H](c3ccc4c(c3C)COC4=O)C2)cnn1-c1ccc2oc(=O)n(C)c2c1 [Example 54-I, (R)-5-(5-methoxy-4-((3-(4-methyl-1-oxo-1,3-dihydroisobenzofuran-5-yl)piperazin-1-yl)methyl)-1H-pyrazol-1-yl)-3-methylbenzo[d] oxazol-2(3H)-one] | 6.96
COc1cc(-c2ncc(C(=O)N3CCO[C@H](c4ccc5c(c4C)COC5=O)C3)s2)ncc1C#N [Example 34-I, (R)-4-methoxy-6-(5-(2-(4-methyl-1-oxo-1,3-dihydroisobenzofuran-5-yl)morpholine-4-carbonyl)thiazol-2-yl) nicotinonitrile] | 6.72
Cc1ncc(-n2cc(CN3C[C@@H](c4ccc5c(c4C)COC5=O)N[C@@H](C)C3)cn2)cn1 [Example 209-I, 4-methyl-5-((2R,6S)-6-methyl-4-((1-(2-methylpyrimidin-5-yl)-1H-pyrazol-4-yl)methyl)piperazin-2-yl)isobenzofuran-1(3H)-one] | 7.00
Cc1c([C@@H]2CN(Cc3cn(-c4ccc5oc(=O)n(C)c5c4)nn3)CC(=O)N2)ccc2c1COC2=O [Example 72-I, (R)-3-methyl-5-(4-((3-(4-methyl-1-oxo-1,3-dihydroisobenzofuran-5-yl)-5-oxopiperazin-1-yl)methyl)-1H-1,2,3-triazol-1-yl)benzo[d] oxazol-2(3H)-one] | 6.26
Cc1cc(-c2ncc(C(=O)N3CCO[C@H](c4ccc5c(c4C)COC5=O)C3)s2)ncc1C#N [Example 33-I, (R)-4-methyl-6-(5-(2-(4-methyl-1-oxo-1,3-di-hydroisobenzofuran-5-yl)morpholine-4-carbonyl)thiazol-2-yl) nicotinonitrile] | 6.16
Cc1c([C@@H]2CN(Cc3cnc(-n4cncn4)nc3)CCN2)ccc2c1COC2=O [Example 234-I, (R)-5-(4-((2-(1H-1,2,4-triazol-1-yl)pyrimidin-5-yl)methyl)piperazin-2-yl)-4-methylisobenzofuran-1(3H)-one] | 7.11
COc1c(CN2C[C@@H](c3ccc4c(c3C)COC4=O)OC2=O)cnn1-c1cc(C)c(C#N)cn1 [Example 79-I, (R)-6-(5-methoxy-4-((5-(4-methyl-1-oxo-1,3-dihydroisobenzofuran-5-yl)-2-oxooxazolidin-3-yl)methyl)-1H-pyrazol-1-yl)-4-methyl-nicotinonitrile] | 6.49
COc1cc(-n2cnc(CN3C[C@@H](c4ccc5c(c4C)COC5=O)OC3=O)c2)ncc1C#N [Example 78-I, (R)-4-methoxy-6-(4-((5-(4-methyl-1-oxo-1,3-dihydroisobenzofuran-5-yl)-2-oxooxazolidin-3-yl)methyl)-1H-imidazol-1-yl)nicotinonitrile] | 6.09
Cc1c([C@@H]2CN(Cc3ccc(-n4cnc(C(F)F)c4)nc3)CCN2)ccc2c1COC2=O [Example 235-I, (R)-5-(4-((6-(4 (difluoromethyl)-1H-imidazol-1-yl)pyridin-3-yl)methyl)piperazin-2-yl)-4-methylisobenzofuran-1(3H)-one] | 7.08
